Experiments:
[1] = biological target: T1, Nuclear receptor ROR-gamma (Homo sapiens, UniProt P51449); assay: Antagonist activity at Gal4-fused RORgamma (unknown origin) expressed in 293T cells after 24 hrs by luciferase reporter gene assay; type: cell-based
T1 sequence (P51449 whole entry): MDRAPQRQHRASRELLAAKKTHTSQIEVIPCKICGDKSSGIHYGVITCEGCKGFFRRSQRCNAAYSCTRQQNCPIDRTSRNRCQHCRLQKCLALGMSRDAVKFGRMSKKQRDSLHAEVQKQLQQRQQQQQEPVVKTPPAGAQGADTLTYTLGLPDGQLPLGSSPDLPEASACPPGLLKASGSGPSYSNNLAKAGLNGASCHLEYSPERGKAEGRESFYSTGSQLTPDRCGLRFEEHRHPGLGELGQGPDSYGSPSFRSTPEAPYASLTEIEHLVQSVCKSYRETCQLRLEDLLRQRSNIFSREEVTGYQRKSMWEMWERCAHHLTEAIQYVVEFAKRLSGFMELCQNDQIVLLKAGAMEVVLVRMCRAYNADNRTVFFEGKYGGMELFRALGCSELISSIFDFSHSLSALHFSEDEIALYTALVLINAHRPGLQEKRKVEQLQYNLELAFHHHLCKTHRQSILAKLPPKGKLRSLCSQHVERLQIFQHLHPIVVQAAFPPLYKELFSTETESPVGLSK

[2] = biological target: T1, Nuclear receptor ROR-gamma; assay: Antagonist activity at full-length RORgamma (unknown origin) expressed in 293T cells after 24 hrs by luciferase reporter gene assay; type: cell-based
[3] = biological target: T1, Nuclear receptor ROR-gamma; assay: Antagonist activity at human His6-tagged RORgamma ligand binding domain (262 to 507 aa) assessed as inhibition of SRC1-4 co-activator peptide recruitment by luminescence-based AlphaScreen assay

| Compound | IC50 [1] [µM] | IC50 [2] [µM] | IC50 [3] [µM] |
| --- | --- | --- | --- |
| CCN1C(=O)c2cccc3c(S(=O)(=O)N(C(=O)c4ccncc4)c4ccc(OC)cc4)ccc1c23 | 0.09 | 0.08 | 6.47 |
| C=CCn1c(COc2ccc(Cl)cc2)nnc1SCC(=O)N/N=C/c1cccc(O)c1 |  |  | 56.6 |
| CCN1C(=O)c2cccc3c(S(=O)(=O)NCc4ccc(OC)cc4)ccc1c23 |  |  | 174 |
| CCN1C(=O)c2cccc3c(S(=O)(=O)Nc4ccccc4C(=O)c4ccccc4)ccc1c23 |  |  | 156 |
| C=CCn1c(CCCN2C(=O)c3cccc4cccc(c34)C2=O)nnc1SCC(=O)Nc1ccc(S(N)(=O)=O)cc1 |  |  | 142 |
| NC(=O)c1ccc(NC(=O)c2cccc(COc3ccc(Cl)cc3)c2)cc1 |  |  | 168 |
| CCN1C(=O)c2cccc3c(S(=O)(=O)NCC4CCN(C(C)=O)CC4)ccc1c23 | 6.03 | 0.59 |  |
